In US10638756B2, “Molecules having pesticidal utility, and intermediates, compositions, and processes, related thereto” (Dow AgroSciences LLC, priority 2017, dated 2020):

Key:
[1] = test system: Beet Armyworm (Spodoptera exigua); assay: Bioassay on Beet Armyworm (BAW), 128-well diet tray assay; type: in vivo; settings: Spodoptera exigua, 168 h; 50 μg/cm^2 on artificial diet, second instar larvae, five to seven days; read-out: BAW % Control (or Mortality) rating
Description: (§1) Certain molecules disclosed in this document were tested against BAW and CL using procedures described in the following examples. In the reporting of the results, the “BAW & CL Rating Table” was used (See Table Section).
Bioassays on BAW were conducted using a 128-well diet tray assay. […] Trays were covered with a clear self-adhesive cover, vented to allow gas exchange, and held at 25° C., 14:10 light-dark for five to seven days. Percent mortality was recorded for the larvae in each well; activity in the eight wells was then averaged. The results are indicated in the table entitled “Table ABC: Biological Results” (See Table Section).

[2] = test system: Cabbage Looper (Trichoplusia ni); assay: Bioassay on Cabbage Looper (CL), 128-well diet tray assay; type: in vivo; settings: 168 h, 50 μg/cm^2 on artificial diet, second instar larvae, five to seven days, read-out: CL % Control (or Mortality) rating
Description: as §1
Bioassays on CL were conducted using a 128-well diet tray assay. One to five second instar CL larvae were placed in each well (3 mL) of the diet tray that had been previously filled with 1 mL of artificial diet to which 50 μg/cm^2 of the test molecule (dissolved in 50 μL of 90:10 acetone-water mixture) had been applied (to each of eight wells) and then allowed to dry. Trays were covered with a clear self-adhesive cover, vented to allow gas exchange, and held at 25° C., 14:10 light-dark for five to seven days. Percent mortality was recorded for the larvae in each well; activity in the eight wells was then averaged. The results are indicated in the table entitled “Table ABC: Biological Results” (See Table Section).

| SMILES | mortality at 50 µg/cm2 [1] [%] | mortality at 50 µg/cm2 [2] [%] |
| --- | --- | --- |
| Cc1cc(O)nc(NNC(=O)c2ccc(/C(F)=C/C(c3cc(Cl)c(Cl)c(Cl)c3)C(F)(F)F)cc2C(F)(F)F)n1 (stereo not drawn) [F105, (Z)—N′-(4-Hydroxy-6-methylpyrimidin-2-yl)-4-(1,4,4,4-tetrafluoro-3-(3,4,5-trichlorophenyl)but-1-en-1-yl)-2-(trifluoromethyl)benzohydrazide] | 50 to 100 | 50 to 100 |
| O=C(NNc1ncccn1)c1ccc(/C(F)=C/C(c2ccc(C(F)(F)F)c(Cl)c2)C(F)(F)F)cc1C(F)(F)F (stereo not drawn) [F167, (Z)-4-(3-(3-Chloro-4-(trifluoromethyl)phenyl)-1,4,4,4-tetrafluorobut-1-en-1-yl)-N′-(pyrimidin-2-yl)-2-(trifluoromethyl)benzohydrazide] | 50 to 100 | 50 to 100 |
| O=C(NNc1ccc(Cl)cn1)c1ccc(/C(F)=C/C(c2cc(Cl)c(Cl)c(Cl)c2)C(F)(F)F)cc1C(F)(F)F (stereo not drawn) [F93, (Z)—N′-(5-Chloropyridin-2-yl)-4-(1,4,4,4-tetrafluoro-3-(3,4,5-trichlorophenyl)but-1-en-1-yl)-2-(trifluoromethyl)benzohydrazide] | 50 to 100 | 50 to 100 |
| CC(C)CNNC(=O)c1ccc(/C(F)=C/C(c2cc(Cl)c(Cl)c(Cl)c2)C(F)(F)F)cc1C(F)(F)F (stereo not drawn) [F157, (Z)—N′-Isobutyl-4-(1,4,4,4-tetrafluoro-3-(3,4,5-trichlorophenyl)but-1-en-1-yl)-2-(trifluoromethyl)benzohydrazide] | 50 to 100 | 50 to 100 |
| O=C(NNc1ncccn1)c1ccc(/C(F)=C/C(c2cc(Cl)c(Cl)c(Cl)c2)C(F)(F)F)cc1Cl (stereo not drawn) [F20, (Z)-2-Chloro-N′-(pyrimidin-2-yl)-4-(1,4,4,4-tetrafluoro-3-(3,4,5-trichlorophenyl)but-1-en-1-yl)benzohydrazide] | 50 to 100 | 50 to 100 |
| O=C(NNc1ncccn1)c1ccc(/C(F)=C/C(c2ccc(F)c(C(F)(F)F)c2)C(F)(F)F)cc1C(F)(F)F (stereo not drawn) [F32, (Z)—N′-(Pyrimidin-2-yl)-4-(1,4,4,4-tetrafluoro-3-(4-fluoro-3-(trifluoromethyl)phenyl)but-1-en-1-yl)-2-(trifluoromethyl)benzohydrazide] | 50 to 100 | 50 to 100 |
| O=C(NNc1ncccn1)c1ccc(/C(F)=C/C(c2cc(Cl)cc(Br)c2)C(F)(F)F)cc1C(F)(F)F (stereo not drawn) [F173, (Z)-4-(3-(3-Bromo-5-chlorophenyl)-1,4,4,4-tetrafluorobut-1-en-1-yl)-N′-(pyrimidin-2-yl)-2-(trifluoromethyl)benzohydrazide] | 50 to 100 | 50 to 100 |
| CN(CCCC(F)(F)F)NC(=O)c1ccc(/C(F)=C/C(c2cc(Cl)c(Cl)c(Cl)c2)C(F)(F)F)cc1C(F)(F)F (stereo not drawn) [F155, (Z)—N′-Methyl-4-(1,4,4,4-tetrafluoro-3-(3,4,5-trichlorophenyl)but-1-en-1-yl)-N′-(4,4,4-trifluorobutyl)-2-(trifluoromethyl)benzohydrazide] | 50 to 100 | 50 to 100 |
| O=C(NNc1cnccn1)c1ccc(/C(F)=C/C(c2cc(Cl)c(Cl)c(Cl)c2)C(F)(F)F)cc1C(F)(F)F (stereo not drawn) [F92, (Z)—N′-(Pyrazin-2-yl)-4-(1,4,4,4-tetrafluoro-3-(3,4,5-trichlorophenyl)but-1-en-1-yl)-2-(trifluoromethyl)benzohydrazide] | 50 to 100 | 50 to 100 |
| CC(C)(C)CNNC(=O)c1ccc(/C(F)=C/C(c2cc(Cl)c(Cl)c(Cl)c2)C(F)(F)F)cc1C(F)(F)F (stereo not drawn) [F140, (Z)—N′-Neopentyl-4-(1,4,4,4-tetrafluoro-3-(3,4,5-trichlorophenyl)but-1-en-1-yl)-2-(trifluoromethyl)benzohydrazide] | 50 to 100 | 50 to 100 |
| O=C(NNC1CCS(=O)(=O)C1)c1ccc(/C(F)=C/C(c2cc(Cl)c(Cl)c(Cl)c2)C(F)(F)F)cc1C(F)(F)F (stereo not drawn) [F135, (Z)—N′-(1,1-Dioxidotetrahydrothiophen-3-yl)-4-(1,4,4,4-tetrafluoro-3-(3,4,5-trichlorophenyl)but-1-en-1-yl)-2-(trifluoromethyl)benzohydrazide] | 50 to 100 | 50 to 100 |
| O=C(NNc1ncc(C(F)(F)F)cn1)c1ccc(/C(F)=C/C(c2cc(Cl)c(Cl)c(Cl)c2)C(F)(F)F)cc1C(F)(F)F (stereo not drawn) [F101, (Z)-4-(1,4,4,4-Tetrafluoro-3-(3,4,5-trichlorophenyl)but-1-en-1-yl)-2-(trifluoromethyl)-N′-(5-(trifluoromethyl)pyrimidin-2-yl)benzohydrazide] | 50 to 100 | 50 to 100 |
| O=C(NNc1c(Cl)cc(C(F)(F)F)cc1Cl)c1ccc(/C(F)=C/C(c2cc(Cl)c(Cl)c(Cl)c2)C(F)(F)F)cc1C(F)(F)F (stereo not drawn) [F87, (Z)—N′-(2,6-Dichloro-4-(trifluoromethyl)phenyl)-4-(1,4,4,4-tetrafluoro-3-(3,4,5-trichlorophenyl)but-1-en-1-yl)-2-(trifluoromethyl)benzohydrazide] | 0 | 0 |
| O=C(Nn1ccc2ccccc21)c1ccc(/C(F)=C/C(c2cc(Cl)c(Cl)c(Cl)c2)C(F)(F)F)cc1C(F)(F)F (stereo not drawn) [F89, (Z)—N-(1H-Indol-1-yl)-4-(1,4,4,4-tetrafluoro-3-(3,4,5-trichlorophenyl)but-1-en-1-yl)-2-(trifluoromethyl)benzamide] | 50 to 100 | 50 to 100 |
| O=C(NNc1ncccn1)c1ccc(/C(F)=C/C(c2cc(F)c(F)c(Cl)c2)C(F)(F)F)cc1C(F)(F)F (stereo not drawn) [F174, (Z)-4-(3-(3-Chloro-4,5-difluorophenyl)-1,4,4,4-tetrafluorobut-1-en-1-yl)-N′-(pyrimidin-2-yl)-2-(trifluoromethyl)benzohydrazide] | 50 to 100 | 50 to 100 |
| Nc1ccccc1NNC(=O)c1ccc(/C(F)=C/C(c2cc(Cl)c(Cl)c(Cl)c2)C(F)(F)F)cc1C(F)(F)F (stereo not drawn) [F156, (Z)—N′-(2-aminophenyl)-4-(1,4,4,4-tetrafluoro-3-(3,4,5-trichlorophenyl)but-1-en-1-yl)-2-(trifluoromethyl)benzohydrazide] | 50 to 100 | 50 to 100 |
| CN(NC(=O)c1ccc(/C(F)=C/C(c2cc(Cl)c(F)c(Cl)c2)C(F)(F)F)cc1C(F)(F)F)c1ncccn1 (stereo not drawn) [F2, (Z)-4-(3-(3,5-Dichloro-4-fluorophenyl)-1,4,4,4-tetrafluorobut-1-en-1-yl)-N′-methyl-N′-(pyrimidin-2-yl)-2-(trifluoromethyl)benzohydrazide] | 50 to 100 | 50 to 100 |
| CN(NC(=O)c1ccc(/C(F)=C/C(c2cc(F)c(F)c(Cl)c2)C(F)(F)F)cc1C(F)(F)F)c1ncccn1 (stereo not drawn) [F175, (Z)-4-(3-(3-Chloro-4,5-difluorophenyl)-1,4,4,4-tetrafluorobut-1-en-1-yl)-N′-methyl-N′-(pyrimidin-2-yl)-2-(trifluoromethyl)benzohydrazide] | 50 to 100 | 50 to 100 |
| NN(CC1CC1)C(=O)c1ccc(/C(F)=C/C(c2cc(Cl)c(Cl)c(Cl)c2)C(F)(F)F)cc1C(F)(F)F (stereo not drawn) [F98, (Z)—N-(Cyclopropylmethyl)-4-(1,4,4,4-tetrafluoro-3-(3,4,5-trichlorophenyl)but-1-en-1-yl)-2-(trifluoromethyl)benzohydrazide] | 50 to 100 | 50 to 100 |
| COc1cnc(NNC(=O)c2ccc(/C(F)=C/C(c3cc(Cl)c(Cl)c(Cl)c3)C(F)(F)F)cc2C(F)(F)F)nc1 (stereo not drawn) [F90, (Z)—N′-(5-Methoxypyrimidin-2-yl)-4-(1,4,4,4-tetrafluoro-3-(3,4,5-trichlorophenyl)but-1-en-1-yl)-2-(trifluoromethyl)benzohydrazide] | 50 to 100 | 50 to 100 |
| O=C(NNc1ccccc1[N+](=O)[O-])c1ccc(/C(F)=C/C(c2cc(Cl)c(Cl)c(Cl)c2)C(F)(F)F)cc1C(F)(F)F (stereo not drawn) [F118, (Z)—N′-(2-nitrophenyl)-4-(1,4,4,4-tetrafluoro-3-(3,4,5-trichlorophenyl)but-1-en-1-yl)-2-(trifluoromethyl)benzohydrazide] | 50 to 100 | 50 to 100 |
| O=C(NNc1ncccn1)c1ccc(/C(F)=C/C(c2ccc(Cl)c(OC(F)(F)F)c2)C(F)(F)F)cc1C(F)(F)F (stereo not drawn) [F42, (Z)-4-(3-(4-Chloro-3-(trifluoromethoxy)phenyl)-1,4,4,4-tetrafluorobut-1-en-1-yl)-N′-(pyrimidin-2-yl)-2-(trifluoromethyl)benzohydrazide] | 50 to 100 | 50 to 100 |
| O=C(NNc1c(Cl)cnc(Cl)c1Cl)c1ccc(/C(F)=C/C(c2cc(Cl)c(Cl)c(Cl)c2)C(F)(F)F)cc1C(F)(F)F (stereo not drawn) [F30, (Z)-4-(1,4,4,4-Tetrafluoro-3-(3,4,5-trichlorophenyl)but-1-en-1-yl)-N′-(2,3,5-trichloro-4-pyridin-4-yl)-2-(trifluoromethyl)benzohydrazide] | 50 to 100 | 50 to 100 |
| C=Cc1cc(C(/C=C(\F)c2ccc(C(=O)NNc3ncccn3)c(C(F)(F)F)c2)C(F)(F)F)cc(Cl)c1Cl (stereo not drawn) [F168, (Z)-4-(3-(3,4-dichloro-5-vinylphenyl)-1,4,4,4-tetrafluorobut-1-en-1-yl)-N′-(pyrimidin-2-yl)-2-(trifluoromethyl)benzohydrazide] | 50 to 100 | 50 to 100 |
